Test: Solubility of FDKP as a function of pH
Type: physicochemical

Compound: O=C(O)/C=C/C(=O)NCCCCC1NC(=O)C(CCCCNC(=O)/C=C/C(=O)O)NC1=O (centres unmarked) [FDKP, 3,6-bis(N-fumaryl-4-aminobutyl)-2,5-diketopiperazine]
- solubility (at neutral or basic pH): readily soluble
- solubility (in acid): low solubility
